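Assay format: 96-well plates, 48-hour exposure. Definition used: TGI = concentration required for complete inhibition of growth.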
These compounds were tested on LOX IMVI melanoma (assay: NCI anticancer screen, dose series, 48 h).
For `COc1nc2nccnc2c(=O)n1C`, the TGI was > 10 µM.
`CCOC(=O)NC(Nc1cccc(C(F)(F)F)c1)(C(F)(F)F)C(F)(F)F` was tested, and the TGI was > 100 µM.
With `COc1ccc2cc(C(C)C(=O)N3CCOC3=O)ccc2c1` (stereo not given) the TGI was > 100 µM.

Each compound was assayed on M14 melanoma (assay: NCI anticancer screen, dose series, 48 h).
In the case of `CC1=CC(C/C(C)=C/COc2ccc3ccc(=O)oc3c2)OC1=O` (stereo not given), the TGI is reported as > 100 µM.
For `CN1[C@@H]2C[C@@H](OC(=O)[C@H](CO)c3ccccc3)C[C@H]1[C@@H]1O[C@@H]12`, the TGI was > 100 µM.
For `N#Cc1c(Cl)cc(Cl)n2c1nc1ccccc12`, the TGI was 24.5 µM.
`CC1=C(O)C(=O)C=C2C1=CC=C1[C@@]2(C)CC[C@@]2(C)[C@@H]3C[C@](C)(C(=O)O)CC[C@]3(C)CC[C@]12C` was tested, and the TGI was 0.141 µM.
For `COc1nc2nccnc2c(=O)n1C`, the TGI was > 10 µM.
In the case of `CCOC(=O)NC(Nc1cccc(C(F)(F)F)c1)(C(F)(F)F)C(F)(F)F`, the TGI is reported as > 100 µM.
With `COc1ccc2cc(C(C)C(=O)N3CCOC3=O)ccc2c1` (stereo not given) the TGI was > 100 µM.

The compounds below were run on MALME-3M melanoma (assay: NCI anticancer screen, dose series, 48 h).
With `CN1[C@@H]2C[C@@H](OC(=O)[C@H](CO)c3ccccc3)C[C@H]1[C@@H]1O[C@@H]12` the TGI was > 100 µM.
With `N#Cc1c(Cl)cc(Cl)n2c1nc1ccccc12` the TGI was 7.36 µM.
Work on `CC1=C(O)C(=O)C=C2C1=CC=C1[C@@]2(C)CC[C@@]2(C)[C@@H]3C[C@](C)(C(=O)O)CC[C@]3(C)CC[C@]12C` yielded a TGI of 0.152 µM.
With `COc1nc2nccnc2c(=O)n1C` the TGI was > 10 µM.
In the case of `CCOC(=O)NC(Nc1cccc(C(F)(F)F)c1)(C(F)(F)F)C(F)(F)F`, the TGI is reported as > 100 µM.
For `COc1ccc2cc(C(C)C(=O)N3CCOC3=O)ccc2c1` (stereo not given), the TGI was > 100 µM.

What follows are compounds tested on MCF7 breast (assay: NCI anticancer screen, dose series, 48 h).
In the case of `CC1=CC(C/C(C)=C/COc2ccc3ccc(=O)oc3c2)OC1=O` (stereo not given), the TGI is reported as > 100 µM.
For `CN1[C@@H]2C[C@@H](OC(=O)[C@H](CO)c3ccccc3)C[C@H]1[C@@H]1O[C@@H]12`, the TGI was > 100 µM.
In the case of `N#Cc1c(Cl)cc(Cl)n2c1nc1ccccc12`, the TGI is reported as 24 µM.
In the case of `CC1=C(O)C(=O)C=C2C1=CC=C1[C@@]2(C)CC[C@@]2(C)[C@@H]3C[C@](C)(C(=O)O)CC[C@]3(C)CC[C@]12C`, the TGI is reported as 0.266 µM.
With `COc1nc2nccnc2c(=O)n1C` the TGI was > 10 µM.
With `CCOC(=O)NC(Nc1cccc(C(F)(F)F)c1)(C(F)(F)F)C(F)(F)F` the TGI was > 100 µM.
`COc1ccc2cc(C(C)C(=O)N3CCOC3=O)ccc2c1` (stereo not given) was tested, and the TGI was > 100 µM.

What follows are compounds tested on MDA-MB-231 breast (assay: NCI anticancer screen, dose series, 48 h).
`CC1=CC(C/C(C)=C/COc2ccc3ccc(=O)oc3c2)OC1=O` (stereo not given) was tested, and the TGI was > 100 µM.
`CN1[C@@H]2C[C@@H](OC(=O)[C@H](CO)c3ccccc3)C[C@H]1[C@@H]1O[C@@H]12` was tested, and the TGI was > 100 µM.
`N#Cc1c(Cl)cc(Cl)n2c1nc1ccccc12` gave a TGI of 14.2 µM.
Compound `CC1=C(O)C(=O)C=C2C1=CC=C1[C@@]2(C)CC[C@@]2(C)[C@@H]3C[C@](C)(C(=O)O)CC[C@]3(C)CC[C@]12C` has a TGI of 0.0664 µM.
In the case of `COc1nc2nccnc2c(=O)n1C`, the TGI is reported as > 10 µM.
With `CCOC(=O)NC(Nc1cccc(C(F)(F)F)c1)(C(F)(F)F)C(F)(F)F` the TGI was > 100 µM.
In the case of `COc1ccc2cc(C(C)C(=O)N3CCOC3=O)ccc2c1` (stereo not given), the TGI is reported as > 100 µM.

These compounds were tested on MDA-MB-435 (assay: NCI anticancer screen, dose series, 48 h).
For `CC1=CC(C/C(C)=C/COc2ccc3ccc(=O)oc3c2)OC1=O` (stereo not given), the TGI was > 100 µM.
In the case of `CN1[C@@H]2C[C@@H](OC(=O)[C@H](CO)c3ccccc3)C[C@H]1[C@@H]1O[C@@H]12`, the TGI is reported as > 100 µM.
With `N#Cc1c(Cl)cc(Cl)n2c1nc1ccccc12` the TGI was 35.3 µM.
Compound `CC1=C(O)C(=O)C=C2C1=CC=C1[C@@]2(C)CC[C@@]2(C)[C@@H]3C[C@](C)(C(=O)O)CC[C@]3(C)CC[C@]12C` has a TGI of 0.157 µM.
With `COc1nc2nccnc2c(=O)n1C` the TGI was > 10 µM.
For `CCOC(=O)NC(Nc1cccc(C(F)(F)F)c1)(C(F)(F)F)C(F)(F)F`, the TGI was > 100 µM.
`COc1ccc2cc(C(C)C(=O)N3CCOC3=O)ccc2c1` (stereo not given) was tested, and the TGI was > 100 µM.

These compounds were tested on MDA-N (assay: NCI anticancer screen, dose series, 48 h).
In the case of `CC1=CC(C/C(C)=C/COc2ccc3ccc(=O)oc3c2)OC1=O` (stereo not given), the TGI is reported as > 100 µM.
For `CN1[C@@H]2C[C@@H](OC(=O)[C@H](CO)c3ccccc3)C[C@H]1[C@@H]1O[C@@H]12`, the TGI was > 100 µM.
`N#Cc1c(Cl)cc(Cl)n2c1nc1ccccc12` showed a TGI of 26.3 µM.
With `CC1=C(O)C(=O)C=C2C1=CC=C1[C@@]2(C)CC[C@@]2(C)[C@@H]3C[C@](C)(C(=O)O)CC[C@]3(C)CC[C@]12C` the TGI was 0.075 µM.
`COc1nc2nccnc2c(=O)n1C` was tested, and the TGI was > 10 µM.
In the case of `CCOC(=O)NC(Nc1cccc(C(F)(F)F)c1)(C(F)(F)F)C(F)(F)F`, the TGI is reported as > 100 µM.
For `COc1ccc2cc(C(C)C(=O)N3CCOC3=O)ccc2c1` (stereo not given), the TGI was > 100 µM.

The compounds below were run on MOLT-4 leukemia (assay: NCI anticancer screen, dose series, 48 h).
With `CC1=CC(C/C(C)=C/COc2ccc3ccc(=O)oc3c2)OC1=O` (stereo not given) the TGI was > 100 µM.
For `CN1[C@@H]2C[C@@H](OC(=O)[C@H](CO)c3ccccc3)C[C@H]1[C@@H]1O[C@@H]12`, the TGI was > 100 µM.
For `N#Cc1c(Cl)cc(Cl)n2c1nc1ccccc12`, the TGI was > 28.8 µM.
In the case of `COc1nc2nccnc2c(=O)n1C`, the TGI is reported as > 10 µM.
For `CCOC(=O)NC(Nc1cccc(C(F)(F)F)c1)(C(F)(F)F)C(F)(F)F`, the TGI was > 100 µM.
In the case of `COc1ccc2cc(C(C)C(=O)N3CCOC3=O)ccc2c1` (stereo not given), the TGI is reported as > 100 µM.
